{"source": "patent US20180020662A1", "about": "“Substituted 1-cycloalkyl-2-oxotetrahydroquinolin-6-ylsulfonamides or salts thereof and use thereof to increase stress tolerance in plants” (BAYER CROPSCIENCE AKTIENGESELLSCHAFT, priority 2015, published 2018)", "key": {"[1]": {"target": "T1, phosphatase ABI1 via the co-regulator RCAR11/PYR1 (Arabidopsis thaliana, UniProt O49686+P49597)", "T1 sequence (O49686 1-191)": "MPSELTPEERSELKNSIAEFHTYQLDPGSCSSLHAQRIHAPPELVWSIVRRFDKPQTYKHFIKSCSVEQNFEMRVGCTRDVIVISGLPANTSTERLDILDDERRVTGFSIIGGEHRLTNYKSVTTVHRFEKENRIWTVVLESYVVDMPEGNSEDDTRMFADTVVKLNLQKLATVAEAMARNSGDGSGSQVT", "T1 sequence (P49597 1-434)": "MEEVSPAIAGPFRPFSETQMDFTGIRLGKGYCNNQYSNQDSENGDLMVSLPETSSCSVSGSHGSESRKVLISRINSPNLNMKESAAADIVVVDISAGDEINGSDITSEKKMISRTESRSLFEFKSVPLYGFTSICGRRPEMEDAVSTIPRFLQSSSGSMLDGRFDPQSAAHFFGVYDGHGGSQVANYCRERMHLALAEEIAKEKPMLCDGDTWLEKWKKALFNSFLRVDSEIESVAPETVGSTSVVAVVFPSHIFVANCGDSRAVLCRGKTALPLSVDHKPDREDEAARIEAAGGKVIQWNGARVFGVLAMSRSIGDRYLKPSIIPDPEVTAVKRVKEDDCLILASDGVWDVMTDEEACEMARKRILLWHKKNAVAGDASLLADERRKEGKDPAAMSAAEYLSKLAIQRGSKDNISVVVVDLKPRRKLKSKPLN", "test": "In vitro assay: inhibition of ABI1 dephosphorylation of 4-methylumbelliferyl phosphate (MUP), fluorescence", "format": "biochemical", "conditions": "concentration of 5 mM of the substance in DMSO and water, 35° C., 20 minutes", "text": "Effects of the phytohormone abscisic acid (ABA) on the behavior of plants under abiotic stress and the mechanism of action of ABA are described in the literature (cf. Abrams et al., WO97/23441, Park et al. Science, 2009, 324, 1068; Grill et al. Science, 2009, 324, 1064; Tanokura et al. Biophysics, 2011, 7, 123; Schroeder et al. Plant J. 2010, 61, 290). Therefore, it is possible with the aid of a suitable in vitro test system to derive a correlation between the action of ABA and the stress response of a plant under abiotic stress. In the event of water deficiency (drought stress), plants form the phytohormone abscisic acid (ABA). This binds, along with a co-regulator (Regulatory Component of ABA-Receptor=RCAR according to Grill et al. Science, 2009, 324, 1064 or PYR/PYL according to Cutler et al. Science, 2009, 324, 1068), to a phosphatase (e.g. ABI1, a type 2C protein phosphatase, also abbreviated to PP2C) and inhibits its activity. As a result, a “downstream” kinase (e.g. SnRK2) is no longer dephosphorylated. This kinase, which is thus active, via phosphorylation of transcription factors (e.g. AREB/ABF, cf. Yoshida et al Plant J. 2010, 61, 672), switches on a genetic protection program to increase drought stress tolerance. The assay described hereinafter utilizes the inhibition of the phosphatase ABI1 via the co-regulator RCAR11/PYR1 aus Arabidopsis thaliana. For the determination of activity, the dephosphorylation of 4-methylumbelliferyl phosphate (MUP) was measured at 460 nm. The in vitro assay was conducted in Greiner 384-well PS microplates F-well, using two controls: a) 0.5% dimethyl sulfoxide (DMSO) and b) 5 μM abscisic acid (ABA). The assay described here was generally conducted with substance concentrations of the appropriate chemical test substances in a concentration range of 0.1 μM to 100 μM in a solution of DMSO and water. The substance solution thus obtained, if necessary, was stirred with esterase from porcine liver (EC 3.1.1.1) at room temperature for 3 h and centrifuged at 4000 rpm for 30 min. A total volume of 45 μl was introduced into each cavity of the microplate, having the following composition: • 1) 5 μl of substance solution, i.e. a) DMSO 5% or b) abscisic acid solution or c) the corresponding example compound of the general formula (I) dissolved in 5% DMSO. • 2) 20 μl of enzyme buffer mix, composed of a) 40% by vol. of enzyme buffer (10 ml contain equal proportions by volume of 500 mM Tris-HCl pH 8, 500 mM NaCl, 3.33 mM MnCl2, 40 mM dithiothreitol (DTT)), b) 4% by vol. of ABI1 dilution (protein stock solution was diluted so as to give, after addition, a final concentration in the assay of 0.15 μg ABI1/well), c) 4% by vol. of RCAR11 dilution (enzyme stock was diluted so as to give, on addition of the dilution to the enzyme buffer mix, a final concentration in the assay of 0.30 μg enzyme/well), d) 5% by vol. of Tween20 (1%), e) 47% by vol. H2O bi-dist. • 3) 20 μl of substrate mix, composed of a) 10% by vol. of 500 mM Tris-HCl pH 8, b) 10% by vol. of 500 mM NaCl, c) 10% by vol. of 3.33 mM MnCl2, d) 5% by vol. of 25 mM MUP, 5% by vol. of Tween20 (1%), 60% by vol. of H2O bi-dist.\nEnzyme buffer mix and substrate mix were made up 5 minutes prior to the addition and warmed to a temperature of 35° C. On completion of pipetting of all the solutions and on completion of mixing, the plate was incubated at 35° C. for 20 minutes. Finally, a relative fluorescence measurement was made at 35° C. with a BMG Labtech “POLARstar Optima” microplate reader using a 340/10 nm excitation filter and a 460 nm emission filter. The efficacy of the compounds of the general formula (I) is reported in the table which follows using abscisic acid […] as comparative substance (no. 38) according to the following classification: ++++(inhibition ≧90%), +++(90% >inhibition ≧70%), ++(70% >inhibition ≧50%), +(50% >inhibition ≧30%). […]"}, "[2]": {"test_system": "Triticum aestivum", "test": "Drought stress test on potted crop plants, spray application, visual scoring against stressed control plants", "format": "in vivo", "parameters": "key: 0: no positive effect; +: slight positive effect; ++: clear positive effect; +++: strong positive effect", "conditions": "mean of at least three repeats", "method": "(§1) Seeds of monocotyledonous and dicotyledonous crop plants were sown in sandy loam in plastic pots, covered with soil or sand and cultivated in a greenhouse under good growth conditions. The test plants are treated at the early leaf stage (BBCH10-BBCH13). To assure uniform water supply before commencement of stress, the potted plants were supplied with water by dam irrigation prior to substance application. The inventive compounds were first formulated as wettable powders (WP) or dissolved in a solvent mixture. The further dilution was effected with water supplemented with 0.2% wetting agent (e.g. agrotin). The finished spray liquor was sprayed onto the green parts of the plant at an equivalent water application rate of 600 I/ha. Substance application was followed immediately by stress treatment of the plants. Drought stress was induced by gradual drying out under the following conditions: “Day”: 14 hours with illumination at […]. “Night”: 10 hours without illumination at […]. The duration of the respective stress phases was guided mainly by the condition of the stressed control plants. It was ended (by re-irrigating and transfer to a greenhouse with good growth conditions) as soon as irreversible damage was observed on the stressed control plants. The end of the stress phase was followed by an about 4-7-day recovery phase, during which the plants were once again kept under good growth conditions in a greenhouse. The duration of the recovery phase was guided mainly by when the trial plants had attained a state which enabled visual scoring of potential effects, and was therefore variable. Once this juncture had been reached, the appearance of the plants treated with test substances was recorded in comparison to the stressed control plants by the following categories: • 0 no positive effect • + slight positive effect • ++ clear positive effect • +++ strong positive effect In order to rule out any influence on the effects observed by any fungicidal or insecticidal action of the test compounds, it was additionally ensured that the tests proceeded without fungal infection or insect infestation. The values reported in tables A-1 and A-2 below are mean values of the results from at least three repeats. Effects of selected compounds of the general formula (I) under drought stress according to the following tables A-1 and A-2: In the above tables: BRSNS =Brassica napus TRZAS =Triticum aestivum"}, "[3]": {"test_system": "Brassica napus", "test": "Drought stress test on potted crop plants, spray application, visual scoring against stressed control plants", "format": "in vivo", "parameters": "key: 0: no positive effect; +: slight positive effect; ++: clear positive effect; +++: strong positive effect", "conditions": "mean of at least three repeats", "method": "as §1"}}, "data": [{"smiles": "O=C1CCc2cc(NS(=O)(=O)Cc3ccc(F)cc3)ccc2N1C1(C2CC2)CC1", "note": "[A3-158]", "values": [{"measurement": "ABI1 inhibition", "setting": "[1]", "value": "++++ (inhibition ≧90%)"}, {"measurement": "Effect (TRZAS)", "setting": "[2]; dosage 250 g/ha", "value": "+"}]}, {"smiles": "CC1CCC1N1C(=O)CCc2cc(NS(=O)(=O)c3ccc(C#N)cc3)ccc21", "note": "(stereo not drawn) [A38-45]", "values": [{"measurement": "Effect (TRZAS)", "setting": "[2]; dosage 250 g/ha", "value": "+"}]}, {"smiles": "Cc1cccc(CS(=O)(=O)Nc2ccc3c(c2)CCC(=O)N3C23CC(C2)C3)c1", "note": "[A30-153]", "values": [{"measurement": "ABI1 inhibition", "setting": "[1]", "value": "+++ (90% >inhibition ≧70%)"}, {"measurement": "Effect (BRSNS)", "setting": "[3]; dosage 250 g/ha", "value": "+"}]}, {"smiles": "CC1(N2C(=O)CCc3cc(NS(=O)(=O)Cc4cccc(Cl)c4)ccc32)CC1", "note": "[A1-166]", "values": [{"measurement": "ABI1 inhibition", "setting": "[1]", "value": "+++ (90% >inhibition ≧70%)"}, {"measurement": "Effect (BRSNS)", "setting": "[3]; dosage 250 g/ha", "value": "++"}]}, {"smiles": "O=C1CCc2cc(NS(=O)(=O)Cc3ccc(Cl)cc3)ccc2N1C1CC1C(F)(F)F", "note": "(stereo not drawn) [A37-165]", "values": [{"measurement": "ABI1 inhibition", "setting": "[1]", "value": "+++ (90% >inhibition ≧70%)"}, {"measurement": "Effect (TRZAS)", "setting": "[2]; dosage 250 g/ha", "value": "++"}]}, {"smiles": "O=C1CCc2cc(NS(=O)(=O)Cc3ccc(Cl)cc3)ccc2N1C12CC(C1)C2", "note": "[A30-165]", "values": [{"measurement": "ABI1 inhibition", "setting": "[1]", "value": "++++ (inhibition ≧90%)"}, {"measurement": "Effect (TRZAS)", "setting": "[2]; dosage 250 g/ha", "value": "++"}]}, {"smiles": "O=C1CCc2cc(NS(=O)(=O)Cc3ccc(F)cc3)ccc2N1C12CC(C1)C2", "note": "[A30-158]", "values": [{"measurement": "ABI1 inhibition", "setting": "[1]", "value": "++++ (inhibition ≧90%)"}, {"measurement": "Effect (TRZAS)", "setting": "[2]; dosage 25 g/ha", "value": "+"}]}, {"smiles": "CC1(N2C(=O)CCc3cc(NS(=O)(=O)Cc4ccc(C#N)cc4)ccc32)CC1", "note": "[A1-181]", "values": [{"measurement": "ABI1 inhibition", "setting": "[1]", "value": "++++ (inhibition ≧90%)"}, {"measurement": "Effect (BRSNS)", "setting": "[3]; dosage 250 g/ha", "value": "++"}, {"measurement": "Effect (TRZAS)", "setting": "[2]; dosage 250 g/ha", "value": "+"}]}, {"smiles": "CC1(N2C(=O)CCc3cc(NS(=O)(=O)Cc4ccc(Cl)cc4)ccc32)CC1", "note": "[A1-165, 1-(4-Chlorophenyl)-N-[1-(1-methylcyclopropyl)-2-oxo-1,2,3,4-tetrahydroquinolin-6-yl]methanesulfonamide]", "values": [{"measurement": "ABI1 inhibition", "setting": "[1]", "value": "++++ (inhibition ≧90%)"}, {"measurement": "Effect (BRSNS)", "setting": "[3]; dosage 250 g/ha", "value": "++"}, {"measurement": "Effect (TRZAS)", "setting": "[2]; dosage 250 g/ha", "value": "+"}]}, {"smiles": "O=C1CCc2cc(NS(=O)(=O)Cc3ccc(Cl)cc3)ccc2N1C1(C2CC2)CC1", "note": "[A3-165]", "values": [{"measurement": "ABI1 inhibition", "setting": "[1]", "value": "++++ (inhibition ≧90%)"}, {"measurement": "Effect (TRZAS)", "setting": "[2]; dosage 250 g/ha", "value": "+"}]}, {"smiles": "N#Cc1ccc(S(=O)(=O)Nc2ccc3c(c2)CCC(=O)N3C23CC(C2)C3)cc1", "note": "[A30-45]", "values": [{"measurement": "Effect (TRZAS)", "setting": "[2]; dosage 250 g/ha", "value": "+"}]}, {"smiles": "CC1(N2C(=O)CCc3cc(NS(=O)(=O)c4ccc(C#N)cc4)ccc32)CC1", "note": "[A1-45]", "values": [{"measurement": "Effect (TRZAS)", "setting": "[2]; dosage 25 g/ha", "value": "+"}]}, {"smiles": "N#Cc1ccc(S(=O)(=O)Nc2ccc3c(c2)CCC(=O)N3C2CC2C2CC2)cc1", "note": "(stereo not drawn) [A16-45]", "values": [{"measurement": "Effect (BRSNS)", "setting": "[3]; dosage 25 g/ha", "value": "++"}, {"measurement": "Effect (TRZAS)", "setting": "[2]; dosage 25 g/ha", "value": "+"}]}, {"smiles": "N#Cc1ccc(CS(=O)(=O)Nc2ccc3c(c2)CCC(=O)N3C2(C3CC3)CC2)cc1", "note": "[A3-181]", "values": [{"measurement": "ABI1 inhibition", "setting": "[1]", "value": "++++ (inhibition ≧90%)"}, {"measurement": "Effect (TRZAS)", "setting": "[2]; dosage 25 g/ha", "value": "+"}]}, {"smiles": "N#Cc1ccc(S(=O)(=O)Nc2ccc3c(c2)CCC(=O)N3C2CC(F)(F)C2)cc1", "note": "[A39-45]", "values": [{"measurement": "Effect (TRZAS)", "setting": "[2]; dosage 250 g/ha", "value": "++"}]}, {"smiles": "CC1CC(N2C(=O)CCc3cc(NS(=O)(=O)Cc4ccc(F)cc4)ccc32)C1", "note": "(stereo not drawn) [A26-158]", "values": [{"measurement": "ABI1 inhibition", "setting": "[1]", "value": "++++ (inhibition ≧90%)"}, {"measurement": "Effect (BRSNS)", "setting": "[3]; dosage 25 g/ha", "value": "+"}]}]}
